The source made the active and inactive calls. The rule behind the calls is not given here.
Legend:
NCI-H460 [1] = assay: Photocytotoxicity against human H460 cells assessed as growth inhibition irradiated at 350 nm at 4, 24, 48 hrs post compound addition for 5 mins measured after 72 hrs by MTT assay; format: functional, cell-based; settings: NCI-H460, light or radiation study
[2] = Drug uptake in cytoplasm of HMLE-shGFP cells at 5 uM irradiated at 420 nm for 5 mins measured after 2 to 3 hrs by confocal microscopic method; format: ADME, subcellular; settings: human
[3] = Drug uptake in intracellular membranes of HMLE-shGFP cells at 5 uM irradiated at 420 nm for 5 mins measured after 2 to 3 hrs by confocal microscopic method; format: ADME, cell membranes, Intracellular membrane; settings: human
MCF7 [4] = assay: Cell cycle arrest in human MCF7 cells in presence of irradiation; format: functional, cell-based
HCT-116 [5] = assay: Photocytotoxicity against human HCT116 cells assessed as growth inhibition irradiated at 350 nm at 4, 24, 48 hrs post compound addition for 5 mins measured after 72 hrs by MTT assay; format: functional, cell-based; settings: HCT-116, light or radiation study
[6] = Dark toxicity against human HCT116 cells after 72 hrs by MTT assay; format: cell-based, HCT-116
[7] = Cytotoxicity against HMLE-shGFP cells at 10 uM irradiated at 420 nm at 4 hrs post compound addition for 5 mins measured after 48 hrs by propidium iodide staining-based flow cytometric method; format: cell-based; settings: human
HMLE [8] = assay: Cytotoxicity against HMLE-shEcad cells at 10 uM irradiated at 420 nm at 4 hrs post compound addition for 5 mins measured after 48 hrs by propidium iodide staining-based flow cytometric method; format: functional, cell-based; settings: Homo sapiens
[9] = Induction of reactive oxygen species generation in HMLE-shGFP cells at 1 to 10 uM irradiated at 420 nm for 5 mins measured after 2 hrs by H2DCF-DA dye-based FACS analysis relative to non-irradiated cells; format: cell-based; settings: human
MCF7 [10] = assay: Induction of reactive oxygen species generation in human MCF7 cells at 1 to 10 uM irradiated at 420 nm for 5 mins measured after 2 hrs by H2DCF-DA dye-based FACS analysis; format: functional, cell-based
HMLE [11] = assay: Cell cycle arrest in HMLE-shEcad cells assessed as accumulation at G2/M phase at 1 to 10 uM irradiated at 420 nm at 4 hrs post compound addition for 5 mins measured after 24 to 48 hrs by propidium iodide staining-based flow cytometric method; format: functional; settings: Homo sapiens
[12] = Photocytotoxicity against HMLE-shGFP cells assessed as growth inhibition irradiated at 420 nm at 4, 24, 48 hrs post compound addition for 5 mins measured after 72 hrs by MTT assay; format: cell-based; settings: Homo sapiens, light or radiation study
NCI-H460 [13] = assay: Photocytotoxicity against human H460 cells assessed as growth inhibition irradiated at 420 nm at 4, 24, 48 hrs post compound addition for 5 mins measured after 72 hrs by MTT assay; format: functional, cell-based; settings: NCI-H460, light or radiation study
[14] = Drug uptake in nucleus of HMLE-shEcad cells at 10 uM in absence of irradiation measured after 2 to 3 hrs by confocal microscopic method; format: ADME, subcellular; settings: human
[15] = Drug uptake in cytoplasm of HMLE-shEcad cells at 10 uM in absence of irradiation measured after 2 to 3 hrs by confocal microscopic method; format: ADME, subcellular; settings: human
[16] = Cell cycle arrest in HMLE-shEcad cells assessed as delay in G1/S phase at 1 to 10 uM after 24 to 48 hrs in absence of irradiation by propidium iodide staining-based flow cytometric method; settings: human
[17] = Decrease in reactive oxygen species generation in HMLE-shEcad cells at 1 uM in absence of irradiation measured after 2 hrs by H2DCF-DA dye-based FACS analysis; format: ADME, cell-based; settings: human
HMLE [18] = assay: Cell cycle arrest in HMLE-shEcad cells assessed as accumulation at S phase at 1 to 10 uM irradiated at 420 nm at 4 hrs post compound addition for 5 mins measured after 24 to 48 hrs by propidium iodide staining-based flow cytometric method; format: functional; settings: Homo sapiens
[19] = Induction of cell damage in HMLE-shGFP cells assessed as membrane blebbing at 5 uM irradiated at 420 nm for 5 mins measured after 2 to 3 hrs by confocal microscopic method; format: cell-based; settings: human
[20] = Drug uptake in nucleus of HMLE-shGFP cells at 5 uM irradiated at 420 nm for 5 mins measured after 2 to 3 hrs by confocal microscopic method; format: ADME, subcellular; settings: human
[21] = Dark toxicity against human SUM159 cells after 72 hrs by MTT assay; format: cell-based, SUM-159-PT
SUM-159-PT [22] = assay: Induction of reactive oxygen species generation in human SUM159 cells at 1 to 10 uM irradiated at 420 nm for 5 mins measured after 2 hrs by H2DCF-DA dye-based FACS analysis; format: functional, cell-based
HMLE [23] = assay: Anticlonogenic activity against HMLE-shEcad cells at 0.5 to 1 uM irradiated at 350 nm at 4 hrs post compound addition for 5 mins for 5 mins measured after 24 hrs by crystal violet staining-based assay; format: functional, cell-based; settings: Homo sapiens
[24] = Dark toxicity against HMLE-shGFP cells after 72 hrs by MTT assay; format: cell-based; settings: human
[25] = Dark toxicity against HMLE-shEcad cells after 72 hrs by MTT assay; format: cell-based; settings: human
[26] = Dark toxicity against human MCF7 cells after 72 hrs by MTT assay; format: cell-based
[27] = Photocytotoxicity against HMLE-shEcad cells assessed as growth inhibition irradiated at 420 nm at 4, 24, 48 hrs post compound addition for 5 mins measured after 72 hrs by MTT assay; format: functional, cell-based; settings: Homo sapiens, light or radiation study
[28] = Cell cycle arrest in HMLE-shGFP cells assessed as accumulation at S phase at 1 to 10 uM irradiated at 420 nm at 4 hrs post compound addition for 5 mins measured after 24 to 48 hrs by propidium iodide staining-based flow cytometric method; settings: human
[29] = Drug uptake in plasma membranes of HMLE-shGFP cells at 5 uM irradiated at 420 nm for 5 mins measured after 2 to 3 hrs by confocal microscopic method; format: ADME, cell membranes, Plasma membrane; settings: human
MCF7 [30] = assay: Photocytotoxicity against human MCF7 cells assessed as growth inhibition irradiated at 420 nm at 4, 24, 48 hrs post compound addition for 5 mins measured after 72 hrs by MTT assay; format: functional, cell-based; settings: MCF7, light or radiation study
[31] = Photocytotoxicity against HMLE-shEcad cells assessed as growth inhibition irradiated at 350 nm at 4, 24, 48 hrs post compound addition for 5 mins measured after 72 hrs by MTT assay; format: functional, cell-based; settings: Homo sapiens, light or radiation study
MCF7 [32] = assay: Photocytotoxicity against human MCF7 cells assessed as growth inhibition irradiated at 350 nm at 4, 24, 48 hrs post compound addition for 5 mins measured after 72 hrs by MTT assay; format: functional, cell-based; settings: MCF7, light or radiation study
[33] = Cell cycle arrest in HMLE-shGFP cells assessed as accumulation at G2/M phase at 1 to 10 uM irradiated at 420 nm at 4 hrs post compound addition for 5 mins measured after 24 to 48 hrs by propidium iodide staining-based flow cytometric method; settings: human
[34] = Dark toxicity against human H460 cells after 72 hrs by MTT assay; format: cell-based, NCI-H460
[35] = Induction of cell damage in HMLE-shGFP cells assessed as cell swelling at 5 uM irradiated at 420 nm for 5 mins measured after 2 to 3 hrs by confocal microscopic method; format: cell-based; settings: human
SUM-159-PT [36] = assay: Photocytotoxicity against human SUM159 cells assessed as growth inhibition irradiated at 420 nm at 4, 24, 48 hrs post compound addition for 5 mins measured after 72 hrs by MTT assay; format: functional, cell-based; settings: light or radiation study
[37] = Induction of cell damage in HMLE-shGFP cells assessed as degradation of internal structure at 5 uM irradiated at 420 nm for 5 mins measured after 2 to 3 hrs by confocal microscopic method; format: cell-based; settings: human
[38] = Photocytotoxicity against HMLE-shGFP cells assessed as growth inhibition irradiated at 350 nm at 4, 24, 48 hrs post compound addition for 5 mins measured after 72 hrs by MTT assay; format: cell-based; settings: Homo sapiens, light or radiation study
HCT-116 [39] = assay: Photocytotoxicity against human HCT116 cells assessed as growth inhibition irradiated at 420 nm at 4, 24, 48 hrs post compound addition for 5 mins measured after 72 hrs by MTT assay; format: functional, cell-based; settings: HCT-116, light or radiation study
SUM-159-PT [40] = assay: Cell cycle arrest in human SUM159 cells in presence of irradiation; format: functional, cell-based

With `Oc1ccc2cc3ccccc3cc2c1` the IC50 (NCI-H460 [1]) was 12 µM, the Drug uptake [2] was “Active” and the Drug uptake [3] was “Active”. The Activity (MCF7 [4]) was “inactive”, the IC50 (HCT-116 [5]) was 9 µM and the IC50 at 72 h [6] was 27 µM. For the same compound, the Activity [7] was “Toxic”, the Activity (HMLE [8]) was “Active” and the “fold change (FC)” value [9] was 2. For the same compound, the Activity (MCF7 [10]) was “Active”, the Activity (HMLE [11]) was “Active” and the IC50 [12] was 2 µM. The IC50 (NCI-H460 [13]) was 2 µM, the Drug uptake [14] was “Not Active” and the Drug uptake [15] was “Active”. The Activity [16] was “Toxic”, the Activity [17] was “Toxic” and the Activity (HMLE [18]) was “Active”. The Activity [19] was “Toxic”, the Drug uptake [20] was “Not Active” and the IC50 at 72 h [21] was 18 µM. The Activity (SUM-159-PT [22]) was “Active”, the Activity (HMLE [23]) was “Active” and the IC50 at 72 h [24] was 27 µM. For the same compound, the IC50 at 72 h [25] was 25 µM, the IC50 at 72 h [26] was 28 µM and the IC50 [27] was 1 µM. For the same compound, the Activity [28] was “Toxic”, the Drug uptake [29] was “Active” and the IC50 (MCF7 [30]) was 1 µM. For the same compound, the IC50 [31] was 2 µM, the IC50 (MCF7 [32]) was 2 µM and the Activity [33] was “Toxic”. The IC50 at 72 h [34] was 23 µM, the Activity [35] was “Toxic” and the IC50 (SUM-159-PT [36]) was 2 µM. For the same compound, the Activity [37] was “Toxic”, the IC50 [38] was 2 µM and the IC50 (HCT-116 [39]) was 2 µM. The Activity (SUM-159-PT [40]) was “inactive”.
